How the values were obtained:
[1] = Antioxidant potential against squalene hydroperoxidation by singlet oxygen (quenching, methylene blue, UV-B, HPLC); conditions: UV-B radiation dose 1.42 J·cm−2, methylene blue photosensitizer
Description: Experimentally, a squalene solution at 5 g/100 mL, a methylene blue solution at 5 mM and a solution of the compound according to the invention (from 1 to 5 mM) or a control compound (methylthiopropylamido acetyl methionine-AMDM) were prepared after being dissolved in 100 mL of methanol (HPLC grade). Then in a UV-B oven, each solution was poured in equal parts into an uncovered Petri dish, in order to be submitted to a radiation dose (1D) of 1.42 J·cm^−2. At the end of the radiation, volumes of the solutions were recovered, adjusted to 20 mL with methanol prior to analysis by HPLC assay and after removal of methylene blue. The “quenching,” rate was then deduced from the following equation: [formula]

HaCaT keratinocytes [2] = assay: Viability of HaCaT keratinocytes exposed to UV-B cytotoxic doses (MTT method); format: cell-based; conditions: Homo sapiens, light or radiation study, UV-B 100 mJ/cm2, MTT after 24 hours, irradiated untreated control 46, non-irradiated 100, read-out: % cell viability; for viability at 100 µM: 0.1 mM in PBS; for viability at 250 µM: 0.25 mM in PBS; for viability at 500 µM: 0.5 mM in PBS
Description: Test 3: Evidence of the Ability of the (Z)-Isomer Conjugates of Formula (I) to Make Viable a Keratinocyte Cell Line Exposed to UV-B Cytotoxic Doses
Experimentally, the study was also carried out on a cell line of immortalized keratinocytes “HaCaT” seeded in 24-well plates at a rate of 8000 cells per square centimeter, namely 15200 cells per welkin 0.5 ml culture medium (with 10% foetal calf serum).
500 μl of the conjugate according to the invention were added in each well at a concentration from 0.05 to 0.5 mM in PBS. The cells in the presence of active ingredient were then exposed to ultraviolet radiations (UV-B) at the moderate dose of 100 mJ·cm−^2, and then placed into a medium without active ingredient for 24 hours. After removal of the medium, the HaCaT keratinocytes cell viability was also measured using the “MTT method” (solution at 250 μg/ml) and by spectrophotometry (absorbance at 570 nm). Gathering the average values obtained from three independent experiments, the results are presented in table 3 below, in comparison with those obtained for two controls, the non-irradiated cells and the non-treated irradiated cells with the conjugates according to the invention.

[3] = Photo-isomerization of (Z)-isomer conjugates to E-isomer under UV-B irradiation (HPLC); format: physicochemical; conditions: 2.5 mM in methanol with squalene; UV-B irradiation dose 1 J·cm−2; formation of E-isomer by HPLC
Description: Test 4: Evidence of the Ability of the (Z)-Isomer Conjugates of Formula (I) to Absorb Ultraviolet Radiation by Photo-Isomerization
Principle: the aim is to check whether the conjugates according to the invention are able to isomerize under UV-B irradiation.
Experimentally, 2 ml of a squalene solution at 5 g/100 mL and 2 mL of a solution of compound according to the invention at the concentration of 25 mM in methanol were introduced into a 20 mL measuring cylinder, and then supplemented with methanol up to 20 mL. The preparation thus obtained was poured into a Petri dish onto which an irradiation dose of 1 J·cm^−2 was applied in a UV-B oven. At the end of the irradiation, the solutions were collected and analyzed by HPLC dosage. Volumes were previously standardized with methanol.
Chromatographic profiles were thus obtained, and the formation of the E-isomer was investigated. An isomerization rate was then determined by comparison with a control profile.

[4] = Opposition to trans-urocanic acid photo-induced isomerization (HPLC); conditions: compound 5 mM, irradiation dose 31 mJ·cm−2
Description: Test 5: Evidence of the Ability of the (Z)-Isomer Conjugates of Formula (I) to Oppose the Trans-Urocanic Acid Photo-Induced Isomerization
Principle: the aim is to check whether the conjugates according to the invention are capable of opposing the trans-urocanic acid photo-isomerization.
Experimentally, the study was carried out almost identically as in tests 1 and 4 above. Beforehand, it was checked that under defined experimental conditions, trans-urocanic acid generates a significant amount of cis-urocanic acid that can be measured by HPLC analysis. The irradiation dose (1D) was 31 mJ·cm^−2 for a compound concentration of 5 mM.

HaCaT keratinocytes [5] = assay: Cytotoxic potential of sulfoxide and sulfone oxidation by-products on HaCaT keratinocytes (MTT method); format: cell-based; conditions: 2.5 mM in PBS, average of three independent experiments, control = 100
Description: Test 2: Evidence of the Absence of Cytotoxic Potential of the Oxidation by-Products of the (Z)-Isomer Conjugates of Formula (I)
Experimentally, the test was carried out on a cell line of immortalized keratinocytes “HaCaT” maintained by subculture in a complete culture medium “DMEM” (with 10% foetal calf serum) in a humid atmosphere at 37° C. and 5% CO2. HaCaT cells were seeded in 24-well plates at the rate of 1·10^5 cells per well.
Sulfoxide and sulfone derivatives of (Z)-isomer conjugates of formula (I) were synthesized after a stoichiometric exposure to hydrogen peroxide (H2O2), then purified and finally quantified.
500 μl of sulfoxide and sulfone oxidation by-products from the conjugates according to the invention were added in each well, at the concentration of 2.5 mM in PBS. After removal of the medium, the HaCaT keratinocytes cell viability was measured using the “MTT method” (MTT standing for (4,5-dimethylthiazol-2-yl)-2,5-diphenyltetrazolium bromide) (solution at 500 μg/ml) and by spectrophotometry (absorbance at 550 nm). Expressed as the average values obtained from three independent experiments, the results are gathered in table 2 below, in comparison with those obtained for the non-irradiated cells.

Row | SMILES | % squalene protection ([1]; compound 1 mM in methanol) | % squalene protection ([1]; compound 5 mM in methanol) | viability at 500 µM (HaCaT keratinocytes [2]) | % isomerization [3] | further results
1 | CS/C=C/C(=O)NCCO [(E)-N-(2-hydroxyethyl)-3-(methylthio)propenamide] | 71% | – | – | – | –
2 | CS/C=C/C(=O)NCCc1ccc(O)cc1 [(E)-N-(4-hydroxyphenethyl)-3-(methylthio)propenamide] | 30% | – | – | – | –
3 | CS/C=C\C(=O)NCCO [(Z)-N-(2-hydroxyethyl)-3-(methylthio)propenamide] | 24% | 25% | 94% | 62% | viability at 100 µM (HaCaT keratinocytes [2]): 64%; viability at 250 µM (HaCaT keratinocytes [2]): 85%; % inhibition of trans-urocanic acid photo-isomerization [4]: 75%
4 | CS(=O)(=S)/C=C\C(=O)NCCO (stereo not shown) [(Z)-N-(2-hydroxyethyl)-3-(methylthiosulfonyl)propenamide] | – | – | – | – | % cell viability (HaCaT keratinocytes [5]): 93.1%
5 | CS/C=C\C(=O)NCCc1ccc(O)cc1 [(Z)-N-(4-hydroxyphenethyl)-3-(methylthio)propenamide] | 35% | 44% | 100% | 95% | viability at 100 µM (HaCaT keratinocytes [2]): 70%; viability at 250 µM (HaCaT keratinocytes [2]): 93%; % inhibition of trans-urocanic acid photo-isomerization [4]: 78%
6 | CS(=O)(=S)/C=C\C(=O)NCCc1ccc(O)cc1 (stereo not shown) [(Z)-N-(4-hydroxyphenethyl)-3-(methylthiosulfonyl)propenamide] | – | – | – | – | % cell viability (HaCaT keratinocytes [5]): 95.0%
7 | CCNC(=O)/C=C\SC [(Z)-N-ethyl-3-(methylthio)propenamide] | – | – | 86% | 60% | –
8 | CSCCCNC(=O)C(CCSC)NC(C)=O (stereo not shown) [AMDM, methylthiopropylamido acetyl methionine, reference compound] | 3% | 15% | – | – | –

From patent publication US9815783B2, “(3-alkylthio)propenoic acid-derived compounds and their application in cosmetics” (EXSYMOL, priority 2015, dated 2017)
